Test results reported in paper PMC12670405, “Second-Generation AURKA-Targeting PROTACs: Structural Optimization toward in Vivo Degradation in Neuroblastoma” (Journal of Medicinal Chemistry, 2025).

How the values were obtained:
Test in all cases: KINOMEscan scanMAX
Type in all cases: binding
[1] = molecular target: T1, ASK1 (Homo sapiens, UniProt Q99683); settings: read-out: Percent Control
T1 construct: purchased Eurofins Discovery (DiscoverX KINOMEscan scanMAX)
Method: (§1) The kinome-wide binding assay was performed by Eurofins Discovery using the scanMAX screening platform. More information can be found on the Eurofins Discovery Web site.

[2] = molecular target: T2, AXL (Homo sapiens, UniProt P30530); settings: read-out: Percent Control
T2 construct: purchased Eurofins Discovery (DiscoverX KINOMEscan scanMAX)
Method: as §1

[3] = molecular target: T3, CAMK2G (Homo sapiens, UniProt Q13555); settings: read-out: Percent Control
T3 construct: purchased Eurofins Discovery (DiscoverX KINOMEscan scanMAX)
Method: as §1

[4] = molecular target: T4, CDK7 (Homo sapiens, UniProt P50613); settings: read-out: Percent Control
T4 construct: purchased Eurofins Discovery (DiscoverX KINOMEscan scanMAX)
Method: as §1

[5] = molecular target: T5, CSK (Homo sapiens, UniProt P41240); settings: read-out: Percent Control
T5 construct: purchased Eurofins Discovery (DiscoverX KINOMEscan scanMAX)
Method: as §1

[6] = molecular target: T6, CSNK1E (Homo sapiens, UniProt P49674); settings: read-out: Percent Control
T6 construct: purchased Eurofins Discovery (DiscoverX KINOMEscan scanMAX)
Method: as §1

[7] = molecular target: T7, DMPK2 (Homo sapiens, UniProt Q6DT37); settings: read-out: Percent Control
T7 construct: purchased Eurofins Discovery (DiscoverX KINOMEscan scanMAX)
Method: as §1

[8] = molecular target: T8, EPHA7 (Homo sapiens, UniProt Q15375); settings: read-out: Percent Control
T8 construct: purchased Eurofins Discovery (DiscoverX KINOMEscan scanMAX)
T8 sequence (Q15375 28-998): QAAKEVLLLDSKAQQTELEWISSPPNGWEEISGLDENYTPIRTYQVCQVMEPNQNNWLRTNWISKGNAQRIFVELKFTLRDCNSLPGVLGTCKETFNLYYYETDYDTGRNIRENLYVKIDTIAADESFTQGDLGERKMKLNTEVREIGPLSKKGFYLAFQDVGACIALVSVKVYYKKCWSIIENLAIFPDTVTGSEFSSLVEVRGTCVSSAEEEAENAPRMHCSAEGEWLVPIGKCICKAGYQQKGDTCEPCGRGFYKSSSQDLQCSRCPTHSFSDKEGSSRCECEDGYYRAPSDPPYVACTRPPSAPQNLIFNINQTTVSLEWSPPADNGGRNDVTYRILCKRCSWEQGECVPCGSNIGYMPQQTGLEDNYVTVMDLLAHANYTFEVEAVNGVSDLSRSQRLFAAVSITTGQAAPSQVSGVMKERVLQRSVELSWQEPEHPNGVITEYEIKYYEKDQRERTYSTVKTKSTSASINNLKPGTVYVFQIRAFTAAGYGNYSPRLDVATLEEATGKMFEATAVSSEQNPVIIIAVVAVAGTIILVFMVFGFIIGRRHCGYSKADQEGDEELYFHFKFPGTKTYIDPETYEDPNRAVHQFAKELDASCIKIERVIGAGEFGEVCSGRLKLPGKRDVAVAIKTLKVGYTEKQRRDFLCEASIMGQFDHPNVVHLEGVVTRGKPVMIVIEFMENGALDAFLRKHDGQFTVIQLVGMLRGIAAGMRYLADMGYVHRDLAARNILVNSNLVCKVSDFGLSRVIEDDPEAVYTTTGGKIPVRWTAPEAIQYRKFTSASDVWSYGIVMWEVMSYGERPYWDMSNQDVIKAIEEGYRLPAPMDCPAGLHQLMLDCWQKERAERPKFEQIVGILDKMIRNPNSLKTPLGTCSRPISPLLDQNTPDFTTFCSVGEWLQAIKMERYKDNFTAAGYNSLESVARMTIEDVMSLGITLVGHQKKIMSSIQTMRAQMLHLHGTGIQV
Method: as §1

[9] = molecular target: T9, EPHB4 (Homo sapiens, UniProt P54760); settings: read-out: Percent Control
T9 construct: purchased Eurofins Discovery (DiscoverX KINOMEscan scanMAX)
T9 sequence (P54760 16-987): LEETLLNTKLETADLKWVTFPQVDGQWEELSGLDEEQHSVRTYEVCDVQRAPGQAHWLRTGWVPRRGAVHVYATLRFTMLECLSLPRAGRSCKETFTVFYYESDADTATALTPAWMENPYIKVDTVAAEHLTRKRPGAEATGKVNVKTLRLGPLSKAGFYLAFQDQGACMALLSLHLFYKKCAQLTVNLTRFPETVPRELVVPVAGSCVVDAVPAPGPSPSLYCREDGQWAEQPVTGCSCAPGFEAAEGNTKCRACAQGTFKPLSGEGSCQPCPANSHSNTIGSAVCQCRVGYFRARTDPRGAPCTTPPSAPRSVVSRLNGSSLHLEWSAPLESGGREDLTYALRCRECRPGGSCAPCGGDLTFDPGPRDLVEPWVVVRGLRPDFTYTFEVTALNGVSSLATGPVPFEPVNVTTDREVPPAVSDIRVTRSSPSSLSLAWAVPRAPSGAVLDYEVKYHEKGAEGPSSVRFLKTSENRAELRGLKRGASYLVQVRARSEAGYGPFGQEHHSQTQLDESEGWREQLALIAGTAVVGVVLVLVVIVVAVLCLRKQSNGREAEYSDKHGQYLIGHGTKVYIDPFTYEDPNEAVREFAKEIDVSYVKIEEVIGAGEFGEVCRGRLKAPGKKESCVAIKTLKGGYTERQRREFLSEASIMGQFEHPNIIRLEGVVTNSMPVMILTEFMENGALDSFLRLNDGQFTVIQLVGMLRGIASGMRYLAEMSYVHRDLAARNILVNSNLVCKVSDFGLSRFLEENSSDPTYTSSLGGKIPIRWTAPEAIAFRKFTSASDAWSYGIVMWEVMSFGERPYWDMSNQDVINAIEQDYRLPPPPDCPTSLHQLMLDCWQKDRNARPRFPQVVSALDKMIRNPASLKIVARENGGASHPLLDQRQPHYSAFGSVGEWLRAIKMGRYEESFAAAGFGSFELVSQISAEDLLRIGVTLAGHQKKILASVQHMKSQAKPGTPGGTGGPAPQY
Method: as §1

[10] = molecular target: T10, FES (Homo sapiens, UniProt P07332); settings: read-out: Percent Control
T10 construct: purchased Eurofins Discovery (DiscoverX KINOMEscan scanMAX)
Method: as §1

[11] = molecular target: T11, FLT3(D835Y) (Homo sapiens, UniProt P36888, D835Y); settings: read-out: Percent Control
T11 construct: purchased Eurofins Discovery (DiscoverX KINOMEscan scanMAX)
Method: as §1

[12] = test system: FLT3(ITD,F691L)
Method: as §1

[13] = molecular target: T12, FRK (Homo sapiens, UniProt P42685); settings: read-out: Percent Control
T12 construct: purchased Eurofins Discovery (DiscoverX KINOMEscan scanMAX)
Method: as §1

[14] = molecular target: T13, GRK2 (Homo sapiens, UniProt P25098); settings: read-out: Percent Control
T13 construct: purchased Eurofins Discovery (DiscoverX KINOMEscan scanMAX)
Method: as §1

[15] = molecular target: T14, GSK3A (Homo sapiens, UniProt P49840); settings: read-out: Percent Control
T14 construct: purchased Eurofins Discovery (DiscoverX KINOMEscan scanMAX)
Method: as §1

[16] = molecular target: T15, GSK3B (Homo sapiens, UniProt P49841); settings: read-out: Percent Control
T15 construct: purchased Eurofins Discovery (DiscoverX KINOMEscan scanMAX)
T15 sequence (P49841 whole entry): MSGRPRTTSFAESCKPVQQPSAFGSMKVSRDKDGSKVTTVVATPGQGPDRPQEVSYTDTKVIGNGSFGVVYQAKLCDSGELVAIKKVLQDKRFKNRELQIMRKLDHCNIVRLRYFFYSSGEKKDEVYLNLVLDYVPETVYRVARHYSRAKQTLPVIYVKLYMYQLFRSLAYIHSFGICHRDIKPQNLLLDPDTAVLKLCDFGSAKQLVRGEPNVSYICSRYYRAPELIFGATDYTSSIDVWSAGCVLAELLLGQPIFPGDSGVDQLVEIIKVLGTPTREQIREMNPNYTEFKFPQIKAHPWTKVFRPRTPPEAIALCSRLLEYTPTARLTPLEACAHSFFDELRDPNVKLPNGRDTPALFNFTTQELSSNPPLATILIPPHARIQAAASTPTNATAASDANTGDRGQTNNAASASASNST
Method: as §1

[17] = molecular target: T16, ICK (Homo sapiens, UniProt Q9UPZ9); settings: read-out: Percent Control
T16 construct: purchased Eurofins Discovery (DiscoverX KINOMEscan scanMAX)
Method: as §1

[18] = molecular target: T17, LATS1 (Homo sapiens, UniProt O95835); settings: read-out: Percent Control
T17 construct: purchased Eurofins Discovery (DiscoverX KINOMEscan scanMAX)
Method: as §1

[19] = molecular target: T18, LCK (Homo sapiens, UniProt P06239); settings: read-out: Percent Control
T18 construct: purchased Eurofins Discovery (DiscoverX KINOMEscan scanMAX)
T18 sequence (P06239 whole entry): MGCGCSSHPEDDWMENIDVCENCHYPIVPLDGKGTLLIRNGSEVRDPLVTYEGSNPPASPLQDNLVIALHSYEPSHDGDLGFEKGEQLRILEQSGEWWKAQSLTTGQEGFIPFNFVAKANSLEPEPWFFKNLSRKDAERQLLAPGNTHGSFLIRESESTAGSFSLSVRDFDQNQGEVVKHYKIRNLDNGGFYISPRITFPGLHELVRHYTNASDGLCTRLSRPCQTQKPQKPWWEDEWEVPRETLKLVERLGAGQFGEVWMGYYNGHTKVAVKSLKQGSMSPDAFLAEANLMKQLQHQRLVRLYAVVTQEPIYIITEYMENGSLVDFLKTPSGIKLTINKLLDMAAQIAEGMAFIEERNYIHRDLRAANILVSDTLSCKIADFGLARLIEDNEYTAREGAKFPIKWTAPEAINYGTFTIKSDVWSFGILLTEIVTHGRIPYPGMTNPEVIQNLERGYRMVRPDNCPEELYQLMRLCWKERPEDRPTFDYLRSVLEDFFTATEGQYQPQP
Method: as §1

[20] = molecular target: T19, LIMK1 (Homo sapiens, UniProt P53667); settings: read-out: Percent Control
T19 construct: purchased Eurofins Discovery (DiscoverX KINOMEscan scanMAX)
T19 sequence (P53667 whole entry): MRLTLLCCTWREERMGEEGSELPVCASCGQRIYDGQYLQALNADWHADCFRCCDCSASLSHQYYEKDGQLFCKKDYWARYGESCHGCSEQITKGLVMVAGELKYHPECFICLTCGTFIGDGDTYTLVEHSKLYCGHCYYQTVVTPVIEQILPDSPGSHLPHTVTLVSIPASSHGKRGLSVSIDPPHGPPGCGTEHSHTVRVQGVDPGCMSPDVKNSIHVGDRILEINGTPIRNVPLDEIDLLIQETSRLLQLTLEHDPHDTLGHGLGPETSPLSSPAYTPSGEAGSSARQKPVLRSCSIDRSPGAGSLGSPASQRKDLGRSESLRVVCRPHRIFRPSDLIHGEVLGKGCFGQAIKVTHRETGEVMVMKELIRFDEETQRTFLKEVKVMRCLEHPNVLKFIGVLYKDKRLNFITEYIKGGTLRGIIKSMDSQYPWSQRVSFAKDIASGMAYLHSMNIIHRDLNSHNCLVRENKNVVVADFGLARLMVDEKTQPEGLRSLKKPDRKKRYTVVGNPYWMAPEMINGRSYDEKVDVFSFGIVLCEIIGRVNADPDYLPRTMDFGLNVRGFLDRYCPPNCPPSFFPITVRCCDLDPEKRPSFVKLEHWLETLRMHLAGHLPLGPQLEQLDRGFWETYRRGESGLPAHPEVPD
Method: as §1

[21] = molecular target: T20, LYN (Homo sapiens, UniProt P07948); settings: read-out: Percent Control
T20 construct: purchased Eurofins Discovery (DiscoverX KINOMEscan scanMAX)
Method: as §1

[22] = molecular target: T21, MARK1 (Homo sapiens, UniProt Q9P0L2); settings: read-out: Percent Control
T21 construct: purchased Eurofins Discovery (DiscoverX KINOMEscan scanMAX)
Method: as §1

[23] = molecular target: T22, MST3 (Homo sapiens, UniProt Q9Y6E0); settings: read-out: Percent Control
T22 construct: purchased Eurofins Discovery (DiscoverX KINOMEscan scanMAX)
T22 sequence (Q9Y6E0 whole entry): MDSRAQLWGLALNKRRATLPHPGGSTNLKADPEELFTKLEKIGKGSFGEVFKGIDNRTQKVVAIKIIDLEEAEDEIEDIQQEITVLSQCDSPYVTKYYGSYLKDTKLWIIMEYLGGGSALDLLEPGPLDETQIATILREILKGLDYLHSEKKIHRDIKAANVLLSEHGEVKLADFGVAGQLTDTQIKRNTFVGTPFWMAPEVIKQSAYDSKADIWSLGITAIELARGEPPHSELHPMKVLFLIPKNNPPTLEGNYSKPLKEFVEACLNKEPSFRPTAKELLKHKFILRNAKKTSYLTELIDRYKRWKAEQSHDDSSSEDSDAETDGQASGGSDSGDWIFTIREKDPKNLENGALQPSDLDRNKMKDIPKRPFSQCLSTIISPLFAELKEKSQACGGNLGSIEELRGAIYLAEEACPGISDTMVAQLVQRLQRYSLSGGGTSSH
Method: as §1

[24] = molecular target: T23, MYLK2 (Homo sapiens, UniProt Q9H1R3); settings: read-out: Percent Control
T23 construct: purchased Eurofins Discovery (DiscoverX KINOMEscan scanMAX)
T23 sequence (Q9H1R3 whole entry): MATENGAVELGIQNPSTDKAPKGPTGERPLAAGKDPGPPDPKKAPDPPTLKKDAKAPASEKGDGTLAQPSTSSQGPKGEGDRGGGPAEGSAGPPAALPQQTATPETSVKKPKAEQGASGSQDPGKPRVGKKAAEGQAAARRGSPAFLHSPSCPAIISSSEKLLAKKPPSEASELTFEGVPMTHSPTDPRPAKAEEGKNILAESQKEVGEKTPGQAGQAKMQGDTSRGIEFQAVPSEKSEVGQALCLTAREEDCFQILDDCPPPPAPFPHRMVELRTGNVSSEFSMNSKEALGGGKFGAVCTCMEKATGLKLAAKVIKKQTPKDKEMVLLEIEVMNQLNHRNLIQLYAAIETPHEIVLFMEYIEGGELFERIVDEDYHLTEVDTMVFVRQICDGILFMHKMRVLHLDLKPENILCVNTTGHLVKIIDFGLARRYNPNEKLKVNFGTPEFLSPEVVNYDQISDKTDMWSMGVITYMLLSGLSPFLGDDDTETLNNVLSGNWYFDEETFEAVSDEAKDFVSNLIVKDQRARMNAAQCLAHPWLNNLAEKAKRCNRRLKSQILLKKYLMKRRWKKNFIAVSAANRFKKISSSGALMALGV
Method: as §1

[25] = molecular target: T24, NEK5 (Homo sapiens, UniProt Q6P3R8); settings: read-out: Percent Control
T24 construct: purchased Eurofins Discovery (DiscoverX KINOMEscan scanMAX)
Method: as §1

[26] = molecular target: T25, PIK3CA(E545A) (Homo sapiens, UniProt P42336, E545A); settings: read-out: Percent Control
T25 construct: purchased Eurofins Discovery (DiscoverX KINOMEscan scanMAX)
Method: as §1

[27] = molecular target: T26, PIM3 (Homo sapiens, UniProt Q86V86); settings: read-out: Percent Control
T26 construct: purchased Eurofins Discovery (DiscoverX KINOMEscan scanMAX)
Method: as §1

[28] = molecular target: T27, RIOK3 (Homo sapiens, UniProt O14730); settings: read-out: Percent Control
T27 construct: purchased Eurofins Discovery (DiscoverX KINOMEscan scanMAX)
Method: as §1

[29] = molecular target: T28, RIPK2 (Homo sapiens, UniProt O43353); settings: read-out: Percent Control
T28 construct: purchased Eurofins Discovery (DiscoverX KINOMEscan scanMAX)
Method: as §1

[30] = molecular target: T29, RIPK5 (Homo sapiens, UniProt Q6XUX3); settings: read-out: Percent Control
T29 construct: purchased Eurofins Discovery (DiscoverX KINOMEscan scanMAX)
Method: as §1

[31] = molecular target: T30, SRMS (Homo sapiens, UniProt Q9H3Y6); settings: read-out: Percent Control
T30 construct: purchased Eurofins Discovery (DiscoverX KINOMEscan scanMAX)
Method: as §1

[32] = molecular target: T31, SgK110 (Homo sapiens, UniProt P0C264); settings: read-out: Percent Control
T31 construct: purchased Eurofins Discovery (DiscoverX KINOMEscan scanMAX)
T31 sequence (P0C264 whole entry): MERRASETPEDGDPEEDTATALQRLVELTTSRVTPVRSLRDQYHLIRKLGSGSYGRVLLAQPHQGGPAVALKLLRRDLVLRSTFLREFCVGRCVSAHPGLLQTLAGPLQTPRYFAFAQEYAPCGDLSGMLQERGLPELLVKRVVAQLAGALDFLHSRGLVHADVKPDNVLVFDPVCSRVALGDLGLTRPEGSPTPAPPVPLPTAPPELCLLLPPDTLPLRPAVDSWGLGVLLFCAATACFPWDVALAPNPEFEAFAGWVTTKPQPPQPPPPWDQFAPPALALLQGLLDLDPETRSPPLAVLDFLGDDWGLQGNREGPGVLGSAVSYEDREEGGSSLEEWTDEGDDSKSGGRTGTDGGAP
Method: as §1

[33] = molecular target: T32, TESK1 (Homo sapiens, UniProt Q15569); settings: read-out: Percent Control
T32 construct: purchased Eurofins Discovery (DiscoverX KINOMEscan scanMAX)
Method: as §1

[34] = molecular target: T33, TRKA (Homo sapiens, UniProt P04629); settings: read-out: Percent Control
T33 construct: purchased Eurofins Discovery (DiscoverX KINOMEscan scanMAX)
Method: as §1

[35] = molecular target: T34, TSSK3 (Homo sapiens, UniProt Q96PN8); settings: read-out: Percent Control
T34 construct: purchased Eurofins Discovery (DiscoverX KINOMEscan scanMAX)
Method: as §1

Cc1cc(Nc2ccc(F)c(CC3(C(=O)N4CCC(F)(CN5CCN(c6ccc(N7CCC(=O)NC7=O)cn6)CC5)CC4)CCN(Cc4cccc(Cl)c4F)CC3)n2)n[nH]1 [SK5527]
remaining binding at 0.1 µM ([1]; 100 nM): 91% | remaining binding at 1 µM ([1]; 1000 nM): 92% | remaining binding at 0.1 µM ([2]; 100 nM): 36% | remaining binding at 1 µM ([2]; 1000 nM): 3.3% | remaining binding at 0.1 µM ([3]; 100 nM): 100% | remaining binding at 1 µM ([3]; 1000 nM): 100% | remaining binding at 0.1 µM ([4]; 100 nM): 91% | remaining binding at 1 µM ([4]; 1000 nM): 100% | remaining binding at 0.1 µM ([5]; 100 nM): 100% | remaining binding at 1 µM ([5]; 1000 nM): 100% | remaining binding at 0.1 µM ([6]; 100 nM): 92% | remaining binding at 1 µM ([6]; 1000 nM): 91% | remaining binding at 0.1 µM ([7]; 100 nM): 100% | remaining binding at 1 µM ([7]; 1000 nM): 100% | remaining binding at 0.1 µM ([8]; 100 nM): 100% | remaining binding at 1 µM ([8]; 1000 nM): 82% | remaining binding at 0.1 µM ([9]; 100 nM): 100% | remaining binding at 1 µM ([9]; 1000 nM): 100% | remaining binding at 0.1 µM ([10]; 100 nM): 100% | remaining binding at 1 µM ([10]; 1000 nM): 100% | remaining binding at 0.1 µM ([11]; 100 nM): 69% | remaining binding at 1 µM ([11]; 1000 nM): 72% | Percent Control ([12]; 100 nM): 100% | Percent Control ([12]; 1000 nM): 75% | remaining binding at 0.1 µM ([13]; 100 nM): 100% | remaining binding at 1 µM ([13]; 1000 nM): 96% | remaining binding at 0.1 µM ([14]; 100 nM): 100% | remaining binding at 1 µM ([14]; 1000 nM): 100% | remaining binding at 0.1 µM ([15]; 100 nM): 100% | remaining binding at 1 µM ([15]; 1000 nM): 94% | remaining binding at 0.1 µM ([16]; 100 nM): 82% | remaining binding at 1 µM ([16]; 1000 nM): 78% | remaining binding at 0.1 µM ([17]; 100 nM): 92% | remaining binding at 1 µM ([17]; 1000 nM): 48% | remaining binding at 0.1 µM ([18]; 100 nM): 100% | remaining binding at 1 µM ([18]; 1000 nM): 100% | remaining binding at 0.1 µM ([19]; 100 nM): 82% | remaining binding at 1 µM ([19]; 1000 nM): 84% | remaining binding at 0.1 µM ([20]; 100 nM): 88% | remaining binding at 1 µM ([20]; 1000 nM): 96% | remaining binding at 0.1 µM ([21]; 100 nM): 78% | remaining binding at 1 µM ([21]; 1000 nM): 94% | remaining binding at 0.1 µM ([22]; 100 nM): 100% | remaining binding at 1 µM ([22]; 1000 nM): 100% | remaining binding at 0.1 µM ([23]; 100 nM): 100% | remaining binding at 1 µM ([23]; 1000 nM): 100% | remaining binding at 0.1 µM ([24]; 100 nM): 100% | remaining binding at 1 µM ([24]; 1000 nM): 100% | remaining binding at 0.1 µM ([25]; 100 nM): 100% | remaining binding at 1 µM ([25]; 1000 nM): 100% | remaining binding at 0.1 µM ([26]; 100 nM): 72% | remaining binding at 1 µM ([26]; 1000 nM): 100% | remaining binding at 0.1 µM ([27]; 100 nM): 100% | remaining binding at 1 µM ([27]; 1000 nM): 100% | remaining binding at 0.1 µM ([28]; 100 nM): 96% | remaining binding at 1 µM ([28]; 1000 nM): 82% | remaining binding at 0.1 µM ([29]; 100 nM): 80% | remaining binding at 1 µM ([29]; 1000 nM): 88% | remaining binding at 0.1 µM ([30]; 100 nM): 97% | remaining binding at 1 µM ([30]; 1000 nM): 81% | remaining binding at 0.1 µM ([31]; 100 nM): 90% | remaining binding at 1 µM ([31]; 1000 nM): 82% | remaining binding at 0.1 µM ([32]; 100 nM): 100% | remaining binding at 1 µM ([32]; 1000 nM): 89% | remaining binding at 0.1 µM ([33]; 100 nM): 66% | remaining binding at 1 µM ([33]; 1000 nM): 83% | remaining binding at 0.1 µM ([34]; 100 nM): 32% | remaining binding at 1 µM ([34]; 1000 nM): 8.3% | remaining binding at 0.1 µM ([35]; 100 nM): 95% | remaining binding at 1 µM ([35]; 1000 nM): 99%
